The source of these data is patent US20020198177A1, “Coenzyme Q and EPA” (priority 2001, published 2002).

For one assay, the system named is mantle cell lymphoma. Put plainly: Case study: high-dose ethyl eicosapentaenoate in a patient with mantle cell lymphoma. It counts as in vivo, human. An excerpt: The following example reports that cancer developed in an individual who had been taking ethyl-EPA at a regular dose of 1 g/d. This individual had also at times in the past three years taken 2 g/d EPA but still cancer developed. […] Doses of 3 g/d to 30 g/d, and preferably of 5 g/d or 20 g/d will therefore be useful in the treatment of cancer. The EPA may be provided in any assimilable form. However, the triglyceride form and the ethyl-ester form are relatively non-irritant to the gastrointestinal tract and are the preferred forms for delivering these large amounts by mouth although other forms could be used for the intravenous route of administration. The EPA for oral administration should be in the purest form possible, at least 70% pure, preferably 80-90% pure, and very preferably 95% or more pure. Docosahexaenoic acid and linoleic acid should each be present at less than 5% and preferably less than 1%. The EPA may be formulated in capsules, liquids or emulsions such as may be required to make it appropriate for either oral or intravenous administration.
A person who had been taking 1 g/d of ethyl eicosapentaenoate as a supplement for general health reasons developed a form of non-Hodgkin's lymphoma called a mantle cell lymphoma. This is characterised by an over-production of a cell cycle controlling factor known as cyclin D1. Cyclin D1 appears to force the cells to divide continually. […] However, high doses are required to achieve the necessary levels in the cancer tissue.
(§1) It was therefore decided to give the patient 10 g/d of 96% pure ethyl eicosapentaenoate containing less than 1% docosahexaenoic acid and no detectable linoleic acid.

The test system of a further assay is cyclin D1. The settings on record: in vitro and in animal models of cancer; cited from earlier work.
The subject of a further assay is cancerous cells. As to conditions: cited from earlier work.
The format of assay [1] is in vivo, human.
Text: as §1
No certain cause of the abnormal rhythm was identified. One possibility may have been the high intake of EPA. EPA at very high doses might theoretically give rise to oxygenated metabolites which could disturb cardiac rhythm. EPA at low doses seems to be strongly anti-arrhythmic but it is known that many anti-arrhythmic drugs can have pro-arrhythmic actions at certain doses.
Ubiquinone may have favourable effects on cardiac rhythm (R B Singh et al, Cardiovascular Drugs and Therapy 1998; 12: 347-353). 120 mg/day was given to the patient taking high dose EPA. […] The ubiquinone was then stopped after ten days.

The mark [2] stands for this setting: ubiquinone 120 mg/day added to high dose EPA, second day.

As for `CC/C=C\C/C=C\C/C=C\C/C=C\C/C=C\CCCC(=O)OCC` [ethyl eicosapentaenoate], the “effect on the patient's palpable tumours” value with mantle cell lymphoma (10 g/d of 96% pure ethyl eicosapentaenoate, sixth day of treatment, person) is “began to regress”. Also, the cancer size entry with mantle cell lymphoma (dose of EPA increased to 10 g/day, within a matter of days) is on record as “reduced dramatically in size”. Besides, the “management of cancer at low dose” value in the assay with mantle cell lymphoma (doses of EPA of 2 g/day or less, cancer developed on 1 g/d, at times 2 g/d) is recorded as “likely to be ineffective”. The “synthesis of cyclin D1” value with cyclin D1 is given as “able to inhibit the synthesis of cyclin D1”. The “growth of cancerous cells” value in the assay on cancerous cells is listed as “could inhibit the growth of cancerous cells”.

As to `COC1=C(OC)C(=O)C(C/C=C(\C)CC/C=C(\C)CC/C=C(\C)CC/C=C(\C)CC/C=C(\C)CC/C=C(\C)CC/C=C(\C)CC/C=C(\C)CC/C=C(\C)CCC=C(C)C)=C(C)C1=O` [ubiquinone], in assay [1] (setting [2]), the “heart rate and rhythm” value is listed as “returned to normal”; the “heart rate at rest” value was in the range of 65 to 75 min⁻¹. Besides, the “cardiac rate and rhythm abnormality on continued treatment” value in assay [1] (ubiquinone plus high dose of EPA over a period of four months) is “no return of the cardiac rate and rhythm abnormality”. Further, in assay [1] (ubiquinone reintroduced, high dose EPA continued), the “heart rate and rhythm on reintroducing ubiquinone” value was “normal rate and rhythm came back”. The “heart rate and rhythm after stopping ubiquinone” value in assay [1] (ubiquinone stopped after ten days, four days after stopping, high dose EPA continued) was “variability of rate and rhythm returned”.
